# Results published in paper PMC7780097, “Asn‐linked N–acetylglucosamine of the amylin receptor 2 extracellular domain enhances peptide ligand affinity” (FEBS Open Bio, 2020).
# What was measured:
# [1] = system: CTR; design: method as in PMID 15692146; settings: cited from earlier work
# [2] = system: CTR ECD; settings: cited from earlier work
# Excerpt: The calcitonin receptor (CTR) is a class B GPCR for peptide hormone calcitonin that regulates calcium homeostasis. CTR has an ECD with four N‐glycosylation sites: N28, N73, N125, and N130. […] Unexpectedly, the crystal structures of Endo H‐treated/Asn‐linked GlcNAc‐containing CTR ECD were almost identical to the structure of glycan‐free CTR ECD with a subtle structural difference. Direct interaction between the Asn‐linked GlcNAc and peptide hormone sCT was not found in the crystal structures ruling out the hypothesis of direct interaction between them. We also examined whether CTR ECD residues near the Asn‐linked GlcNAc of N130 medi ...
# [3] = system: full‐length CTR; settings: cited from earlier work
# Excerpt: The calcitonin receptor (CTR) is a class B GPCR for peptide hormone calcitonin that regulates calcium homeostasis. CTR has an ECD with four N‐glycosylation sites: N28, N73, N125, and N130. […] My colleagues and I reported that N‐glycosylation of CTR enhanced salmon calcitonin (sCT) affinity for CTR ECD by sevenfold and that the asp ...
# [4] = system: AMY; design: method as in PMID 15692146; settings: cited from earlier work
# [5] = system: glycosylated CTR ECD[N130D]; assay: FP peptide binding assay, glycosylated CTR ECD[N130D] with or without PNGase F treatment; settings: PNGase F treatment vs No PNGase F treatment; Fig. 2A
# Protocol: (§1) pHLsec‐based vectors were used to obtain glycosylated CTR ECD from HEK293S GnTI^− cells as a secreted protein. Maltose‐binding protein (MBP) was fused to the CTR ECD to increase initial protein expression and purification.
# (§2) MBP‐TEV cleavage site‐CTR ECD WT was expressed from HEK293S GnTI^− cells for 3 days after plasmid transfection with polyethyleneimine (PEI). All protein purification steps were performed at 4 °C, otherwise noted. The expressed protein was purified with immobilized Ni metal affinity chromatography (IMAC). The peak fractions were pooled and incubated with 1 : 5 ratio TEV protease (w/w, TEV protease: protein) for 6 h at 20 °C. The reaction mixture was spin‐concentrated (MWCO 10 kDa) and loaded to size‐exclusion chromatography (SEC). The fractions with expected CTR ECD WT molecular weight were collected, spin‐concentrated, and used for PNGase F reaction and following peptide binding assay. […]
# (§3) The procedure of fluorescence polarization (FP) peptide binding assay was previously described [4]. FITC‐sCT(22–32), FITC‐AC413(6–25), and FITC‐AM(37–52)[S45W/Q50W] were used as fluorescence‐labeled peptide probes. […] A PolarStar Omega plate reader (BMG Labtech, Cary, NC, USA) or a SpectraiD5 (Molecular Devices, San Jose, CA, USA) was used to measure FP. Background‐subtracted fluorescence intensity was used to calculate anisotropy.
# [6] = biological target: T1, glycosylated CTR ECD[N130D] (Homo sapiens, UniProt P30988, N130D); assay: as above; settings: heat‐inactivated PNGase F vs No PNGase F; Fig. 2A
# T1 sequence (P30988 38-141 N130D): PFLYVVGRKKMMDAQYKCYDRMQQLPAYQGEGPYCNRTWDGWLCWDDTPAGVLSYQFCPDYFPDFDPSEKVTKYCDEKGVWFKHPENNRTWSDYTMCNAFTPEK
# Protocol: as §1, §2, §3
# [7] = biological target: RAMP2 ECD:CTR ECD complex (Endo H‐treated CTR ECD WT) (Homo sapiens, UniProt O60895+P30988); assay: FP peptide binding assay, RAMP2 ECD 100 μM coincubation with Endo H-treated CTR ECD WT (AMY2 ECD); settings: Discussion summary of Fig. 4B
# Protocol: The expression and purification procedure of Endo H‐treated CTR ECD WT and N130D was previously reported. […] After TEV protease reaction, N‐glycans of the protein were trimmed with 1 : 10 ratio Endo H (w/w, Endo H : protein) overnight at 4 °C, while dialyzing to 25 mM MOPS (pH 6.5) and 150 mM NaCl. Next day, the pH was increased to pH 7.5 and the protein was purified with IMAC and following SEC. The final peak fractions were dialyzed to storage buffer and stored at −80 °C until use.
# The expression and purification of glycan‐free RAMP2 ECD were previously reported except for using RAMP2.55‐140 instead of RAMP2.36‐140 [15]. Briefly, MBP‐Thrombin cleavage site‐hRAMP2.55‐140‐H6 was expressed in the E. coli strain Origami B DE3. The cells were lysed by sonication and spun down by centrifugation. The supernatant was purified with IMAC and following amylose affinity chromatography. Human α‐thrombin was used to cleave out MBP, and the reaction mixture was loaded to IMAC to remove untagged MBP and thrombin. The RAMP2 ECD was further purified with SEC, and the peak fractions were dialyzed to storage buffer and stored at −80 °C until use. RAMP2 ECD without an MBP‐tag was also purified as follows. hRAMP2.55‐140‐H6 was expressed in the E. coli strain Origami B DE3. The bacterial cells were lysed by sonication using Bioruptor® standard (Diagenode Inc., Denville, NJ, USA). […]
# [8] = by the Asn‐linked GlcNAc of CTR N130
# Sequence of RAMP2 ECD:CTR ECD complex (Endo H‐treated CTR ECD WT) (P30988 38-141): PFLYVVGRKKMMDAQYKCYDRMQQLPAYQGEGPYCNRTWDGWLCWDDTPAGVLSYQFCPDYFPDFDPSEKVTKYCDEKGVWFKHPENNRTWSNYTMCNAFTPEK
# Sequence of RAMP2 ECD:CTR ECD complex (Endo H‐treated CTR ECD WT) (O60895 55-140): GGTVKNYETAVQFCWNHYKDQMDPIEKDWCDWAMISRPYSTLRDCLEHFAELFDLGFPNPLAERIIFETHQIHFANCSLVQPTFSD
substance,measurement,setting,value
salmon calcitonin [sCT],agonist activity,[1],high affinity agonist
same,fold enhancement of affinity by N‐glycosylation,[2]; N‐glycosylation of CTR,sevenfold
same,decrease of dissociation rate,[2]; [8],twofold
same,fold affinity enhancement,[2]; [8],sixfold
same,increase of association rate,[2]; [8],threefold
same,"affinity, effect of N‐glycosylation of CTR ECD N130",[3],enhanced
same,agonist activity,[4],high affinity agonist
same,fold decrease in affinity,[5],1.7 fold
same,effect of heat‐inactivated PNGase F on affinity,[6],did not change
same,"sCT affinity for AMY2 ECD, effect of the Asn‐linked GlcNAc of CTR N130",[7],increased
